Laboratory results as given in PMC3433414, “Oral Administration of the Pimelic Diphenylamide HDAC Inhibitor HDACi 4b Is Unsuitable for Chronic Inhibition of HDAC Activity in the CNS In Vivo” (PLoS ONE, 2012).
Entries after “also recorded” stand apart in the source; their conditions may differ.

How the values were obtained:
[1] = Solubility in water, formulations and DMSO; type: physicochemical; conditions: cyclodextrin formulation prepared without heating
[2] = Chemical stability in formulation or solution; type: physicochemical
Method: Thomas and colleagues reported that a solution of 4b at 1 mg/mL was previously obtained using this procedure. […] We therefore prepared both TFA and hydrochloride (HCl) salts of 4b to establish whether they could offer improved solubility. Neither salt form of 4b was particularly soluble in water (<1 mg/ml). […] A study of the stability of the TFA salt also raised another more worrying issue in the use of 2-hydroxypropyl-β-cyclodextrin–complexed 4b salts for potential in vivo studies. […] The 4b. […] The lower than expected initial quantification of 4b was most likely due to the TFA salt rapidly degrading upon heating. Indeed, we always found the presence of the cyclised benzimidazole conversion product, named throughout as product C1, in the salt formulations even at t = 0 after preparation. Furthermore, the suspension was not stable upon standing in the dark with gentle shaking at room temperature, with a further 28% decrease observed in parent (4b) concentration on day 7 analysis, compared to day 1.
According to Thomas et al, verification of an acute pharmacodynamic response (the reversal of transcriptional dysregulation in the R6/2 model) was achieved by the repeated once daily injection of 150 mg/kg 4b in 50∶50 DMSO: PBS for three consecutive days. […] The lack of any pharmacodynamic response predictive of central Class I HDAC inhibition when 4b was dosed orally at 150 mg/kg twice daily for 5 days confirmed this prediction.

[3] = Solubility in water, formulations and DMSO; type: physicochemical
Method: Thomas and colleagues reported that a solution of 4b at 1 mg/mL was previously obtained using this procedure. […] We therefore prepared both TFA and hydrochloride (HCl) salts of 4b to establish whether they could offer improved solubility. Neither salt form of 4b was particularly soluble in water (<1 mg/ml). […] A study of the stability of the TFA salt also raised another more worrying issue in the use of 2-hydroxypropyl-β-cyclodextrin–complexed 4b salts for potential in vivo studies. […] The 4b. TFA cyclodextrin suspension targeted at 1 mg/ml with heating gave an initial (day 1) measured value of 0.75 mg/ml total 4b, with only 0.27 mg/mL solubilised as quantified in the sample after filtration. The lower than expected initial quantification of 4b was most likely due to the TFA salt rapidly degrading upon heating. Indeed, we always found the presence of the cyclised benzimidazole conversion product, named throughout as product C1, in the salt formulations even at t = 0 after preparation. Furthermore, the suspension was not stable upon standing in the dark with gentle shaking at room temperature, with a further 28% decrease observed in parent (4b) concentration on day 7 analysis, compared to day 1.
As a consequence de novo formulation attempts were made with the stable free base form. After several trials with different excipients, we were able to reach a soluble formulation preparation of 1 mg/ml 4b in 2% N-methyl-2-pyrollidone, 18% polyethylene glycol 400, 10% solutol HS-15 and 70% (1% Lutrol F68 in water), a vehicle which we have previously used without any adverse effects in R6/2 model chronic efficacy trials, but is unlikely to be palatable to mice in drinking water. With this concentration, a single oral gavage dose will result in a maximum of 10 mg/kg dose level (assuming a maximum dose volume of […]), considerably lower than that estimated to have been used by Thomas et al (150 mg/kg day in drinking water). In an attempt to replicate the original dose level as close as possible, it became necessary to formulate the test compound in suspension. We achieved a stable homogeneous suspension of free base 4b up to 100 mg/ml in 0.5% carboxymethylcellulose (medium viscosity) in reverse osmosis deionized (RODI) water. This suspension was used to evaluate the oral pharmacokinetics of 4b in mice. […]

Plasma stability = type: in vitro ADME, mouse; conditions: mouse plasma
Method: Incubations of test compound (5 µM initial concentration, n = 2) were carried out with pooled mouse plasma or BSA (45 mg/mL in 0.1 M phosphate buffered saline). The incubations were performed at 37°C. Samples (50 µL) were obtained from the incubation at 0, 10, 30, 120, 240, 360 and 1440 min, and added to 150 µL of acetonitrile containing carbamazepine as analytical internal standard to terminate the reaction. Samples were centrifuged and the supernatant fractions analysed by LC-MS/MS.
For half-life determinations, the instrument responses (peak areas) normalized for internal standard response, were referenced to the zero time-point samples (as 100%) in order to determine the percentage of compound remaining. Ln plots of the % remaining, for each compound, were used to determine the half-life for the plasma incubations. Half-life values were calculated from the relationship:-. [drawing 1] Where λ was the slope of the natural logarithmic (Ln) concentration vs time curve.
When quantification was required, calibration standards for parent compound and metabolites were prepared in control plasma and extracted and analysed as described for the study samples. Quantification of parent compound or metabolite was by extrapolation from the calibration line.

[4] = Hepatic microsomal stability; type: in vitro ADME, mouse; conditions: mouse hepatic microsomes; parent 4b
Method: Incubations of test compounds (1 µM initial concentration, n = 2) were carried out with pooled hepatic microsomes (0.25 mg protein/mL in 0.1 M phosphate buffer pH 7.4). NADPH (1 mM) was added to initiate the reactions. The incubations were performed at 37°C. Samples (100 µL) were taken from the incubation at 0, 5, 10, 20 and 40 min and added to 100 µL of acetonitrile containing carbamazepine as analytical internal standard, to terminate the reaction. Samples were centrifuged and the supernatant fractions analysed by LC-MS/MS. The instrument responses (i.e. chromatographic peak heights), normalized by internal standard response were referenced to the zero time-point samples (as 100%) in order to determine the percentage of compound remaining.
Ln plots of the % remaining, for each compound, were used to determine the half-life for the microsomal incubations.
Half-life values were calculated from the relationship. [drawing 2] where λ was the slope of the Ln concentration vs time curve.
The in vitro intrinsic clearance, CLint (µL/min/mg microsomal protein), was calculated using the following formula: [drawing 3]
When quantification was required, calibration standards for parent compound and metabolites were prepared in control hepatic microsomes and extracted and analysed as described for the study samples. Quantification of parent compound or metabolite was by extrapolation from the calibration line.

HDAC3-NcoR2 = biological target: T1, HDAC3-NcoR2 (Homo sapiens, UniProt O15379); assay: Two-step fluorogenic deacetylase assay, recombinant HDAC3; type: biochemical; conditions: standard 1 h pre-incubation conditions
T1 construct: purified recombinant human full length HDAC1 (cat# 50051), HDAC2 (cat# 50052), HDAC3-NcoR2 (cat# 50003); purchased BPS Bioscience (San Diego, CA) 50003
T1 sequence (O15379 whole entry): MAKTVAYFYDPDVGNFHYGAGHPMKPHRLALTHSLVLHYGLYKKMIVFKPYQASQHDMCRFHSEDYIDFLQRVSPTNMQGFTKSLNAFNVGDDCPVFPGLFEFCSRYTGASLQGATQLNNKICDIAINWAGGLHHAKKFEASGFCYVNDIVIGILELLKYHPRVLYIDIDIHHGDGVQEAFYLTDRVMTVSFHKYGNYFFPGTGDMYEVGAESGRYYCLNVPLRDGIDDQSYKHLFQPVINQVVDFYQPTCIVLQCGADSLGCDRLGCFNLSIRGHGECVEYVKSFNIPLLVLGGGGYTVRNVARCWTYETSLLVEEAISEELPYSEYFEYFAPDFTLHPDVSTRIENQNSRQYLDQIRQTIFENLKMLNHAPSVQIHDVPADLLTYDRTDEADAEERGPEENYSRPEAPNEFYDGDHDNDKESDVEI
T1 sequence (Q9Y618 395-489 partner limits assumed): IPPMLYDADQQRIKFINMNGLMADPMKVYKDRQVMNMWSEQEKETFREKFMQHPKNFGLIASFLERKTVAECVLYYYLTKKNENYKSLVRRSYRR
Method: As described, the length of compound-enzyme incubation has been reported to be critical for this class of HDAC inhibitors, where a unique time-dependent increase in affinity and subsequent potency has been observed [36]–[38]. […] To better mimic physiological conditions, our experiments were performed at 37°C as opposed to room temperature as reported in previous studies. […] To confirm that this shift was independent of the time of 4b in aqueous solution, 4b was applied immediately to the enzyme-substrate mix both after preparing in aqueous buffer, and 120 min after preparation.
To assess the biochemical and cellular potency of 4b and its conversion products/metabolites, we utilized the two-step fluorogenic assay which measures the HDAC-mediated catalytic conversion of synthetic acetylated lysine substrates. In brief, on deacetylation of the substrates by HDAC activity, a protease site is unmasked which allows subsequent trypsin-mediated cleavage and release of the highly flourescent AMC molecules in a subsequent step of the assay. The substrates used were Lys_Ac_AMC (Bachem I-1875) for HDAC3 and (Ac)Arg-Gly-Lys(Ac) (Bachem I-1925) for HDAC1 and HDAC2. The final substrates used for each enzyme assessment were carefully selected after assessing the catalytic turnover of each of these substrates against HDAC1, HDAC2 and HDAC3 respectively, and selecting the ones that performed best. To assess Class IIa enzyme activity (HDAC4, 5, 7, 9) and Class I HDAC8 activity, we used the alternative substrate Boc_Lys_TFA (Bachem I-1985), equivalent to substrate 4 of [42]. Class IIa HDACs have approximately 1000-fold less catalytic activity than Class 1 enzymes, and show only extremely low turnover of acetylated substrates due to a Tyr to His mutation in the active site. However, the relatively labile and sterically more demanding trifluoracetyl group is readily hydrolyzed by the catalytically less avid Class IIa enzymes, allowing measurement of Class IIa activity using the 2-step fluorogenic assay. Intriguingly the Boc_Lys_TFA substrate seems to show almost total selectivity for Class IIa enzymes over class I and Class IIb enzymes, with the exception of HDAC8 ([42], and internal data).
(§1) For evaluation of the class selectivity of the compounds, we assessed inhibition against purified recombinant human full length HDAC1 (cat# 50051), HDAC2 (cat# 50052), HDAC3-NcoR2 (cat# 50003) and HDAC8 (cat# 50008): as representative of Class I activity; catalytic domain HDAC4(αα 648–1057), HDAC5 (αα 657–1123; cat # 50005), HDAC7 (αα 518-end; cat # 50007) and HDAC9 (αα 604–1066; cat # 50009) activity: representing all Class IIa activity; and full length HDAC6 (cat#50006): representing Class IIb activity. With the exception of purified catalytic domain HDAC4, which was prepared for us by Emerald Biosciences (Seattle, WA), all HDAC enzymes were purchased from BPS Bioscience (San Diego, CA).
Unless otherwise stated in the text, assays were run in the following format in 384-well plates using automated liquid handling procedures. Briefly, frozen enzyme stock and compounds were diluted in assay buffer (50 mM Tris-HCl, 137 mM NaCl, 2.7 mM KCl, 1 mM MgCl2 at pH 8.0) and added to plates at concentrations sufficient to achieve a 16-point concentration-response curve from 50 µM to 1 nM at 1% DMSO final concentration, after addition of all reagents. Substrate diluted in assay buffer was then added and plates were incubated after brief shaking for 60 min at 37°C. Following incubation, a developer/stop-step was introduced to terminate the reaction and cleave the fluorescent substrate: either the addition of trypsin with 10 µM Compound 26 [44] for the Class IIa enzymes, or trypsin with 5 µM Trichostatin A (TSA) for the Class I/IIb enzymes. Plates were briefly shaken and then returned to the incubator for a further 60 min, followed by measurement of fluorescence per well (Ex 355 nm, Em 460 nm) on a Perkin Elmer EnVision. […]

[5] = system: endogenous Class I HDACs/HDAC6; assay: Cellular HDAC assay, Boc_Lys_Ac substrate, Jurkat E6.1 cells; type: cell-based; conditions: up to 50 µM; 5 h incubation
Method: Briefly, Jurkat E6.1 cells (obtained from the European Collection of Cell Cultures (ECACC)) were plated into 384 well plates at 75,000 cells/well in cellular assay buffer (RPMI without phenol red, 0.1% Fetal Bovine Serum, 10 mM HEPES, 1 mM Sodium Pyruvate). […] Fluorescent counts were read the following morning on the Perkin Elmer EnVision.
Each compound was tested in duplicate in concentration-response format on 3 separate days. […] A full dose response of reference compound was always included alongside the profiling, to ensure that assay parameters remained within acceptable limits.

HDACs = assay: Biochemical HDAC assays (whole panel); set-up: species or system human; conditions: up to 50 µM
Excerpt: To assess the biochemical and cellular potency of 4b and its conversion products/metabolites, we utilized the two-step fluorogenic assay which measures the HDAC-mediated catalytic conversion of synthetic acetylated lysine substrates. In brief, on deacetylation of the substrates by HDAC activity, a protease site is unmasked which allows subsequent trypsin-mediated cleavage and release of the highly flourescent AMC molecules in a subsequent step of the assay. The substrates used were Lys_Ac_AMC (Bachem I-1875) for HDAC3 and (Ac)Arg-Gly-Lys(Ac) (Bachem I-1925) for HDAC1 and HDAC2. […] However, the relatively labile and sterically more demanding trifluoracetyl group is readily hydrolyzed by the catalytically less avid Class IIa enzymes, allowing measurement of Class IIa activity using the 2-step fluorogenic assay. […]
as §1, with “With the exception of purified catalytic domain HDAC4, which was prepared for us by Emerald Biosciences (Seattle, WA), all HDAC enzymes were purchased from BPS Bioscience (San Diego, CA).” left out

FXN = system: FXN; set-up: method as in PMID 16921367; conditions: at the concentration tested; cited from earlier work
[6] = cyclodextrin suspension targeted at 1 mg/ml, with heating

## Cc1ccc(NC(=O)CCCCCC(=O)Nc2ccccc2N)cc1.O=C(O)C(F)(F)F [4b. TFA]
[1]
  4b dissolved (filtrate of suspension): 0.3 mg/mL
[2]; 1 mg/ml in DMSO
  day 7 value as % of value at day 1: 59%
[2]; cyclodextrin suspension, dark, gentle shaking, room temperature
  decrease in parent (4b) concentration, day 7 compared to day 1: 28%
[2]; eg. aqueous acetonitrile, ambient temperature, more rapidly when heated
  cyclisation to benzimidazole product in solution: cyclised slowly
[3]; [6]
  4b solubilised (after filtration), day 1: 0.27 mg/mL
  total 4b measured in suspension, day 1: 0.75 mg/mL
[3]; prepared at 1 mg/ml
  solubility in DMSO: soluble
[3]; salt forms
  solubility in water: < 1000 µg/mL

## Nc1ccccc1NC(=O)CCCCCC(=O)O [Compound M1]
Plasma stability; parent 4b
  share of the metabolism of parent accounted for by metabolite: 78%
[4]
  share of the metabolism of parent accounted for by metabolite: 42%
HDAC3-NcoR2
  IC50: 26 µM
[5]
  activity in the Class I cellular HDAC (Boc_Lys_Ac) assay: totally inactive; also recorded: neither inhibits HDACs

## O=C(O)CCCCCc1nc2ccccc2[nH]1 [Compound M3]
Plasma stability; parent C1
  share of the metabolism of parent accounted for by metabolite: 80%
HDACs
  activity in the biochemical HDAC assays: inactive
[5]
  activity in the Class I cellular HDAC (Boc_Lys_Ac) assay: inactive

## BML-210 [reference compound]
FXN
  effect on FXN mRNA: increase FXN mRNA without cytotoxicity
